“And” between values parts separate entries of the source, which are not always exact repeats. Equal values may be shown once. One block for each compound: values may come before it.
Tested on: 993429-296-R-J1-PDC complex spheroid growth, percent test/control
Test: Anticancer human tumor 993429-296-R-J1-PDC patient-derived uterine sarcoma cell line growth inhibition [Asc]
Details: for viability, T/C: stronger effect = lower value
Protocol: Multicellular complex tumor spheroid response to apoptosis pathway targeting inhibitors Alrizomadlin, Pelcitoclax, and Dasminapant in combination with a variety of drugs and investigational agents in selected tumor cell lines
The MDM2 inhibitor alrizomadlin, the Bcl-2/Bcl-xL inhibitor pelcitoclax, and the IAPs inhibitor dasminapant were evaluated both individually and in combination with standard of care and investigational anticancer small molecules within a complex spheroid model of solid tumors. . Complex spheroids include a stromal component modeled by human endothelial cells (HUVEC) and fibroblasts modeled by human mesenchymal stem cells (MSCs). The concentration ranges selected for each drug and investigational agent were based upon clinically achievable concentrations if the clinical Cmax of the agent was known.
Compounds. The drugs and investigational agents: alrizomadlin (APG-115; NSC831270), pelcitoclax (APG-1252; NSC835773), dasminapant (APG-1387;NSC834197), TAK-243 (NSC785004), copanlisib (NSC809693), olaparib (NSC753686), talazoparib (NSC767125), cobimetinib (NSC 768068), eltanexor (KPT-8602, NSC 794443), abemaciclib (NSC 768073), sotorasib (NSC818433), adagrasib (NSC 831453), MRTX-1133 (NSC 836407), Iadademestat (ORY1001, NSC 806812), and RMC-4630 (NSC839698), were obtained from the NCI Developmental Therapeutics Program Chemical Repository. The FDA-approved anticancer drug set is available from the Developmental Therapeutics Program at https://dtp.cancer.gov/organization/dscb/obtaining/available plates.htm. […] The stock solutions were prepared in dimethyl sulfoxide (DMSO, Sigma-Aldrich, St. Louis, MO, cat. D2650) at 800-fold the tested concentration and stored at -70 degrees C prior to their use. All drugs and investigational agents were tested over a range starting from a high concentration at or near the clinical Cmax and decreasing in half-log increments. If the clinical Cmax for an agent had not been determined, the highest concentration tested was 10 microM.
The patient-derived cancer (PDC) cell lines include five colon adenocarcinomas: 186277-243-T-J2-PDC, 616215-338-R-J1-PDC, 439559-082-T-J2-PDC, 463943-066-T-J2-PDC, and 519858-162-T-J1-PDC; three pancreatic carcinomas: 323965-272-R-J2-PDC, 521955-158-R6-J3-PDC, and 521955-158-R2-J5-PDC; two uterine sarcomas: 327498-152-R-J2-PDC and 993429-296-R-J1-PDC; two rhabdomyosarcomas: 755483-174-R-J1-PDC and 772245-204-R-J1-PDC; two soft tissue sarcomas: 126254-015-R-J1-PDC and 494315-158-R-J1-PDC; two malignant fibrous histiocytomas: 317291-083-R-J1-PDC and 596521-263-R-J1-PDC; two breast carcinomas: 171881-019-R-J1-PDC and 885512-296-R-J2-PDC; and one ovarian carcinoma: 6556581-035-R-J-PDC were obtained from the NCI PDMR, (https://pdmr.cancer.gov). The established cell lines HSSY-2 synovial sarcoma (RRID:CVCL 8719), SYO-1 synovial sarcoma (RRID:CVCL_7146), MPNST malignant peripheral neural sheath tumor were obtained from the Sloan Kettering Institute. The following established cell lines were purchased from the American Type Culture Collection (ATCC, Manassas, VA), Sor the received from the NCI repository:, PANC-1 pancreatic carcinoma (CRL-1469, RRID:CVCL_0480), OVCAR-5 ovarian carcinoma (RRID:CVCL_1628), OVCAR-8 ovarian carcinoma (RRID:CVCL_1629), , MCF-7 breast carcinoma (CRL-12584, RRID:CVCL_0031), MDA-MB-231 breast carcinoma (CRL-12532, RRID:CVCL_0062), NCI-H1876 small cell lung carcinoma (CRL-5902, RRID:CVCL_1503), NCI-H510A small cell lung carcinoma (HTB-184, RRID:CVCL_1565), NCI-H1417 (CRL-5869, RRID:CVCL_1469), and NCI-H196 small cell lung carcinoma (CRL-5823, RRID:CVCL_1509). Dr. Peter Houghton (Greehey Children's Cancer Research Institute, University of Texas Health Science Center, San Antonio, TX) provided Rh-18 rhabdomyosarcoma (RRID:CVCL_1659). Pooled donor human umbilical vein endothelial cells (HUVEC, Lonza, cat. CC-2519) and human mesenchymal stem cells (hMSC, Lonza, cat. PT-2501) were purchased from Lonza (Walkersville, MD).
Cell Culture. […]
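Further: spheroids exposed to compounds for seven days.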

- IC50 (curve of first compound, second compound 0.1 µM): 944 nM
- IC50 (curve of first compound, second compound 0.316 µM): 1110 nM
- IC50 (curve of first compound, second compound 1 µM): 773 nM
- IC50 (curve of first compound, second compound 3.16 µM): < 31.6 nM
- IC50 (curve of first compound, second compound 10 µM): 1480 nM
SMILES: O=C(c1cc(Cc2n[nH]c(=O)c3ccccc23)ccc1F)N1CCN(C(=O)C2CC2)CC1 + Cc1c(S(C)(=O)=O)c(-c2cc(F)cc(N3CCN(c4ccc(NS(=O)(=O)c5ccc(NC(CCN6CCC(C(=O)OCCCP(=O)(O)O)CC6)CSc6ccccc6)c(S(=O)(=O)C(F)(F)F)c5)cc4)CC3)c2)c(-c2ccc(Cl)cc2)n1C(C)C
- viability, T/C (second compound 0.1 µM, first compound 0.0316 µM): 89.2%
- viability, T/C (second compound 0.1 µM, first compound 0.1 µM): 53.2%
- viability, T/C (second compound 0.1 µM, first compound 0.316 µM): 56.9%
- viability, T/C (second compound 0.1 µM, first compound 1 µM): 59.6%
- viability, T/C (second compound 0.1 µM, first compound 3.16 µM): 37.8%
- viability, T/C (second compound 0.1 µM, first compound 10 µM): 9.27%
- viability, T/C (second compound 0.316 µM, first compound 0.0316 µM): 55.8%
- viability, T/C (second compound 0.316 µM, first compound 0.1 µM): 51.1%
- viability, T/C (second compound 0.316 µM, first compound 0.316 µM): 69.8%
- viability, T/C (second compound 0.316 µM, first compound 1 µM): 49.3%
- viability, T/C (second compound 0.316 µM, first compound 3.16 µM): 29.1%
- viability, T/C (second compound 0.316 µM, first compound 10 µM): 8.15%
- viability, T/C (second compound 1 µM, first compound 0.0316 µM): 51.5%
- viability, T/C (second compound 1 µM, first compound 0.1 µM): 55.8%
- viability, T/C (second compound 1 µM, first compound 0.316 µM): 57.2%
- viability, T/C (second compound 1 µM, first compound 1 µM): 48.2%
- viability, T/C (second compound 1 µM, first compound 3.16 µM): 20.5%
- viability, T/C (second compound 1 µM, first compound 10 µM): 5.17%
- viability, T/C (second compound 3.16 µM, first compound 0.0316 µM): 42%
- viability, T/C (second compound 3.16 µM, first compound 0.1 µM): 39%
- viability, T/C (second compound 3.16 µM, first compound 0.316 µM): 44.3%
- viability, T/C (second compound 3.16 µM, first compound 1 µM): 32.6%
- viability, T/C (second compound 3.16 µM, first compound 3.16 µM): 19.3%
- viability, T/C (second compound 3.16 µM, first compound 10 µM): 4.24%
- viability, T/C (second compound 10 µM, first compound 0.0316 µM): 86.9%
- viability, T/C (second compound 10 µM, first compound 0.1 µM): 85.8%
- viability, T/C (second compound 10 µM, first compound 0.316 µM): 59.9%
- viability, T/C (second compound 10 µM, first compound 1 µM): 70%
- viability, T/C (second compound 10 µM, first compound 3.16 µM): 13.5%
- viability, T/C (second compound 10 µM, first compound 10 µM): 1.63%

- IC50 (curve of compound): 4950 nM and 7380 nM and 8570 nM
SMILES: O=C(c1cc(Cc2n[nH]c(=O)c3ccccc23)ccc1F)N1CCN(C(=O)C2CC2)CC1
- viability, T/C (compound 0.0316 µM): 83.4% and 99.6% and 106%
- viability, T/C (compound 0.1 µM): 84.4% and 88.2% and 103%
- viability, T/C (compound 0.316 µM): 90.3% and 89.3% and 93%
- viability, T/C (compound 1 µM): 72.8% and 82.6% and 105%
- viability, T/C (compound 3.16 µM): 67.7% and 68.7% and 83.8%
- viability, T/C (compound 10 µM): 25.3% and 43% and 44.8%
